Where two headings read alike, the source gives them in different places.
How the values were obtained:
[1] = target: SIRT-5 (Homo sapiens, UniProt Q9NXA8); test: inhibition of sirtuins; type: biochemical
From the text: Inhibition of Sirtuins, matrix metalloproteinase, bromodomains was also confirmed using standard protocols and the results are present in Table 2.

[2] = target: T1, FLT3(ITD) (Homo sapiens, UniProt P36888); type: binding; conditions: Table 1
T1 construct: In general, full-length constructs were used for small, single domain kinases, and catalytic domain constructs for large multi-domain kinases; fused on or other part: T7 phage fusion or DNA tag for qPCR detection
Protocol: (§1) Cannabis flavonoids and their analogs were subjected to kinase inhibition assay. The compounds were first screened at a single concentration of 10 μM in the primary assay. […] To determine the kd or IC50 values, competition binding assays were established, authenticated and executed as described previously. […] See also, Karaman et al., “A Quantitative Analysis Of Kinase Inhibitor Selectivity”, Nat. Biotechnol. […] For most assays, kinases were fused to T7 phage strains (Fabian, supra) and for the other assays, kinases were produced in HEK-293 cells after which they were tagged with DNA for quantitative PCR detection. In general, full-length constructs were used for small, single domain kinases, and catalytic domain constructs for large multi-domain kinases. […] The liganded beads were blocked with excess biotin and washed with blocking buffer (SeaBlock (Pierce), 1% BSA, 0.05% Tween 20, 1 mM DTT) to remove unbound ligand and to reduce non-specific phage binding. […] All reactions were performed in polypropylene 384-well plates in a final volume of 0.04 ml. […] The kinase concentration in the eluates was measured by quantitative PCR. An illustration of the kinase interaction process is presented below. Kd/IC50 values were determined using a standard dose response curve using the hill equation. Curves were fitted using a non-linear least square fit with the Levenberg-Marquardt algorithm.

[3] = tested on: MM.1S (Multiple Myeloma); test: anticancer cell proliferation assay (WST-1); type: cell-based; conditions: 72 hours
Protocol: (§2) Bioactivity of the above-described compounds has been verified by an anticancer cell proliferation assay using the WST-1 (4-[3-(4-iodophenyl)-2-(4-nitrophenyl)-2H-5-tetrazoliol-1, 3-benzene disulfonate) colorimetric assay by Roche Life Sciences®. Anticancer activity was tested against several standard cancer cell lines including brain, breast, Kaposi sarcoma, leukemia, lung, melanoma, tenosynovial giant cell tumor, ovarian, pancreatic, colon and prostate cancer. Cells were trypsinized and plated into 96 well plates in 50 μl of media and incubated overnight. The next day approximately 18 hours after plating, 50 μl of media containing the required flavonoid-based pharmaceutical composition was added per well. Cells were plated at a density so that 72 hours post drug addition, the cells will be in log phase (500-2000 cells/well). The compounds and extracts were solubilized in Dimethyl sulfoxide (DMSO). The cells are allowed to proliferate for 72 hours 37° C. in humidified atmosphere of 5% CO2. The experiment is terminated using WST-1 (Roche®) 10 μl per well and absorbance is read at 450 nm/690 nm. The effect of drugs on growth is assessed as percent of cell viability. The IC50 values were determined from the extract dose versus control growth curves using Graphpad Prism® software. All experiments were carried out in duplicate and the mean results determined.

[4] = tested on: KMS-11 (Multiple myeloma); test: anticancer cell proliferation assay (WST-1); type: cell-based; conditions: 72 hours
Protocol: as §2

[5] = tested on: human pancreatic cancer xenograft CFPAC-1 cells; test: human pancreatic cancer xenograft CFPAC-1 in scid mice; type: in vivo; conditions: CFPAC-1 xenograft
From the text: The results of the anticancer activity are presented in Tables 3 and 4 (above) and in FIG. 6, Hela cells shown at (A) and CMK cells at (B) and MV4-11 and MOLT-14 acute myeloid leukemia cells.

[6] = tested on: MV4-11 (Leukemia); test: anticancer cell proliferation assay (WST-1); type: cell-based
Protocol: as §2, with “Anticancer” for “Bioactivity of the above-described compounds has been verified by an anticancer cell proliferation assay using the WST-1 (4-[3-(4-iodophenyl)-2-(4-nitrophenyl)-2H-5-tetrazoliol-1, 3-benzene disulfonate) colorimetric assay by Roche Life Sciences®. Anticancer”

[7] = target: T2, JAK2 (Homo sapiens, UniProt O60674); test: kinase competition binding assay; conditions: Table 1
T2 construct: full-length constructs were used for small, single domain kinases, and catalytic domain constructs for large multi-domain kinases; T7 phage fusion (most assays) or DNA tag for qPCR (HEK-293-made kinases); made in house
Protocol: (§3) Cannabis flavonoids and their analogs were subjected to kinase inhibition assay. The compounds were first screened at a single concentration of 10 μM in the primary assay. […]. To determine the kd or IC50 values, competition binding assays were established, authenticated and executed as described previously. Fabian et al., “A Small Molecule-Kinase Interaction Map For Clinical Kinase Inhibitors.”, Nat Biotechnol, 23(3):329-36, Epub (2005). See also, Karaman et al., “A Quantitative Analysis Of Kinase Inhibitor Selectivity”, Nat. Biotechnol. […] For most assays, kinases were fused to T7 phage strains (Fabian, supra) and for the other assays, kinases were produced in HEK-293 cells after which they were tagged with DNA for quantitative PCR detection. In general, full-length constructs were used for small, single domain kinases, and catalytic domain constructs for large multi-domain kinases. The binding assays utilized streptavidin-coated magnetic beads treated with biotinylated small molecule ligands for 30 minutes at room temperature which generated affinity resins for the kinase assays. The liganded beads were blocked with excess biotin and washed with blocking buffer (SeaBlock (Pierce), 1% BSA, 0.05% Tween 20, 1 mM DTT) to remove unbound ligand and to reduce non-specific phage binding. […] Test compounds were prepared as 40× stocks in 100% DMSO and diluted directly into the assay (Final DMSO concentration=2.5%). All reactions were performed in polypropylene 384-well plates in a final volume of 0.04 ml. […] The beads were then re-suspended in elution buffer (1×PBS, 0.05% Tween 20, 0.5 μM non-biotinylated affinity ligand) and incubated at room temperature with shaking for 30 minutes. The kinase concentration in the eluates was measured by quantitative PCR. An illustration of the kinase interaction process is presented below. Kd/IC50 values were determined using a standard dose response curve using the hill equation. Curves were fitted using a non-linear least square fit with the Levenberg-Marquardt algorithm.

[8] = target: T3, JAK3 (Homo sapiens, UniProt P52333); test: kinase competition binding assay; conditions: Table 1
T3 construct: full-length constructs were used for small, single domain kinases, and catalytic domain constructs for large multi-domain kinases; T7 phage fusion (most assays) or DNA tag for qPCR (HEK-293-made kinases); made in house
Protocol: as §3

[9] = target: T4, PDGFRa (Homo sapiens, UniProt P16234); test: kinase competition binding assay; conditions: Table 1
T4 construct: catalytic domain constructs for large multi-domain kinases; T7 phage fusion (most assays) or DNA tag for qPCR (HEK-293-made kinases); made in house
Protocol: as §3

[10] = target: T5, PIK4CB (Homo sapiens, UniProt Q9UBF8); test: kinase competition binding assay; conditions: Table 1
T5 construct: T7 phage fusion (most assays) or DNA tag for qPCR (HEK-293-made kinases); made in house
Protocol: as §3

[11] = target: T6, MEK5 (Homo sapiens, UniProt Q13163); test: kinase competition binding assay; conditions: Table 1
T6 construct: T7 phage fusion (most assays) or DNA tag for qPCR (HEK-293-made kinases); made in house
Protocol: as §3

[12] = target: T7, c-SRC (Homo sapiens, UniProt P12931); test: kinase competition binding assay; conditions: Table 1
T7 construct: T7 phage fusion (most assays) or DNA tag for qPCR (HEK-293-made kinases); made in house
Protocol: as §3

[13] = target: T8, PIK3CA(1800L) (Homo sapiens, UniProt P42336, I800L); test: kinase competition binding assay; conditions: Table 1
T8 construct: T7 phage fusion (most assays) or DNA tag for qPCR (HEK-293-made kinases); made in house
Protocol: as §3

[14] = target: T9, MNK2 (Homo sapiens, UniProt Q9HBH9); test: kinase competition binding assay; conditions: Table 1
T9 construct: T7 phage fusion (most assays) or DNA tag for qPCR (HEK-293-made kinases); made in house
Protocol: as §3

[15] = target: T10, FLT3(D835V) (Homo sapiens, UniProt P36888, D835V); test: kinase competition binding assay; conditions: Table 1
T10 construct: full-length constructs were used for small, single domain kinases, and catalytic domain constructs for large multi-domain kinases; T7 phage fusion (most assays) or DNA tag for qPCR (HEK-293-made kinases); made in house
Protocol: as §3

[16] = target: T11, JAK1 (Homo sapiens, UniProt P23458); test: kinase competition binding assay; conditions: Table 1
T11 construct: full-length constructs were used for small, single domain kinases, and catalytic domain constructs for large multi-domain kinases; T7 phage fusion (most assays) or DNA tag for qPCR (HEK-293-made kinases); made in house
Protocol: as §3

[17] = target: T12, BIKE (Homo sapiens, UniProt Q9NSY1); test: kinase competition binding assay; conditions: Table 1
T12 construct: full-length constructs were used for small, single domain kinases, and catalytic domain constructs for large multi-domain kinases; T7 phage fusion (most assays) or DNA tag for qPCR (HEK-293-made kinases); made in house
Protocol: as §3

[18] = target: T13, PIP5K1A (Homo sapiens, UniProt Q99755); test: kinase competition binding assay; conditions: Table 1
T13 construct: T7 phage fusion (most assays) or DNA tag for qPCR (HEK-293-made kinases); made in house
Protocol: as §3

[19] = target: T14, SRC (Homo sapiens, UniProt P12931); test: kinase competition binding assay; conditions: Table 1
T14 construct: T7 phage fusion (most assays) or DNA tag for qPCR (HEK-293-made kinases); made in house
Protocol: as §3

[20] = target: T15, PDGFRa(T6741) (Homo sapiens, UniProt P16234, T674I); test: kinase competition binding assay; conditions: Table 1
T15 construct: catalytic domain constructs for large multi-domain kinases; T7 phage fusion (most assays) or DNA tag for qPCR (HEK-293-made kinases); made in house
Protocol: as §3

[21] = target: T16, TXK (Homo sapiens, UniProt P42681); test: kinase competition binding assay; conditions: Table 1
T16 construct: T7 phage fusion (most assays) or DNA tag for qPCR (HEK-293-made kinases); made in house
Protocol: as §3

[22] = target: T17, DRAK2 (Homo sapiens, UniProt O94768); test: kinase competition binding assay; conditions: Table 1
T17 construct: full-length constructs were used for small, single domain kinases, and catalytic domain constructs for large multi-domain kinases; T7 phage fusion (most assays) or DNA tag for qPCR (HEK-293-made kinases); made in house
Protocol: as §3

[23] = target: T18, MELK (Homo sapiens, UniProt Q14680); test: kinase competition binding assay; conditions: Table 1
T18 construct: full-length constructs were used for small, single domain kinases, and catalytic domain constructs for large multi-domain kinases; T7 phage fusion (most assays) or DNA tag for qPCR (HEK-293-made kinases); made in house
Protocol: as §3

[24] = target: T19, Yes/yes1 (Homo sapiens, UniProt P07947); test: kinase competition binding assay; conditions: Table 1
T19 construct: T7 phage fusion (most assays) or DNA tag for qPCR (HEK-293-made kinases); made in house
Protocol: as §3

[25] = tested on: Normal Bone marrow; test: anticancer cell proliferation assay (WST-1); type: cell-based; conditions: Table 4
Protocol: as §2

[26] = tested on: THP-1 Acute Myeloid Leukemia cell line; test: anticancer cell proliferation assay (WST-1); type: cell-based; conditions: Table 4; read-out: IC50 Acute Myeloid Leukemia cell lines THP-1
Protocol: as §2, with “Anticancer” for “Bioactivity of the above-described compounds has been verified by an anticancer cell proliferation assay using the WST-1 (4-[3-(4-iodophenyl)-2-(4-nitrophenyl)-2H-5-tetrazoliol-1, 3-benzene disulfonate) colorimetric assay by Roche Life Sciences®. Anticancer”

[27] = tested on: MOLM-14 Acute Myeloid Leukemia cell line; test: anticancer cell proliferation assay (WST-1); type: cell-based; conditions: Table 4; read-out: IC50 Acute Myeloid Leukemia cell lines MOLM-14
Protocol: as §2, with “Anticancer” for “Bioactivity of the above-described compounds has been verified by an anticancer cell proliferation assay using the WST-1 (4-[3-(4-iodophenyl)-2-(4-nitrophenyl)-2H-5-tetrazoliol-1, 3-benzene disulfonate) colorimetric assay by Roche Life Sciences®. Anticancer”

[28] = tested on: 60 cancer cell line panel; conditions: US National Cancer Institute 60 cancer cell line panel; cited from earlier work
[29] = target: T20, FLT3(D835Y) (Homo sapiens, UniProt P36888, D835Y); type: binding; conditions: Table 4; read-out: IC50 Kinases FLT3-D835Y
T20 construct: full-length constructs were used for small, single domain kinases, and catalytic domain constructs for large multi-domain kinases; T7 phage fusion (most assays) or DNA tag for qPCR (HEK-293-made kinases); made in house
Protocol: as §1

T17 sequence (O94768 whole entry, the tested form may be a part): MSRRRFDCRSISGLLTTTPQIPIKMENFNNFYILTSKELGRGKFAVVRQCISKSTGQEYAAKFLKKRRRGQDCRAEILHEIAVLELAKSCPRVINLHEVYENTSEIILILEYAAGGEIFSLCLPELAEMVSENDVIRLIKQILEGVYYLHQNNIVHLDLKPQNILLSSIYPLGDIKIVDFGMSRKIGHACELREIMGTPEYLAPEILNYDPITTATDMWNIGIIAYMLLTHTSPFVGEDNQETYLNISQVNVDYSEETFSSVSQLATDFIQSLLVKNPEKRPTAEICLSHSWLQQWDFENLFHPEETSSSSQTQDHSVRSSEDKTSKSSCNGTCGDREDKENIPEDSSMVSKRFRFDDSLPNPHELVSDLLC
T3 sequence (P52333 whole entry, the tested form may be a part): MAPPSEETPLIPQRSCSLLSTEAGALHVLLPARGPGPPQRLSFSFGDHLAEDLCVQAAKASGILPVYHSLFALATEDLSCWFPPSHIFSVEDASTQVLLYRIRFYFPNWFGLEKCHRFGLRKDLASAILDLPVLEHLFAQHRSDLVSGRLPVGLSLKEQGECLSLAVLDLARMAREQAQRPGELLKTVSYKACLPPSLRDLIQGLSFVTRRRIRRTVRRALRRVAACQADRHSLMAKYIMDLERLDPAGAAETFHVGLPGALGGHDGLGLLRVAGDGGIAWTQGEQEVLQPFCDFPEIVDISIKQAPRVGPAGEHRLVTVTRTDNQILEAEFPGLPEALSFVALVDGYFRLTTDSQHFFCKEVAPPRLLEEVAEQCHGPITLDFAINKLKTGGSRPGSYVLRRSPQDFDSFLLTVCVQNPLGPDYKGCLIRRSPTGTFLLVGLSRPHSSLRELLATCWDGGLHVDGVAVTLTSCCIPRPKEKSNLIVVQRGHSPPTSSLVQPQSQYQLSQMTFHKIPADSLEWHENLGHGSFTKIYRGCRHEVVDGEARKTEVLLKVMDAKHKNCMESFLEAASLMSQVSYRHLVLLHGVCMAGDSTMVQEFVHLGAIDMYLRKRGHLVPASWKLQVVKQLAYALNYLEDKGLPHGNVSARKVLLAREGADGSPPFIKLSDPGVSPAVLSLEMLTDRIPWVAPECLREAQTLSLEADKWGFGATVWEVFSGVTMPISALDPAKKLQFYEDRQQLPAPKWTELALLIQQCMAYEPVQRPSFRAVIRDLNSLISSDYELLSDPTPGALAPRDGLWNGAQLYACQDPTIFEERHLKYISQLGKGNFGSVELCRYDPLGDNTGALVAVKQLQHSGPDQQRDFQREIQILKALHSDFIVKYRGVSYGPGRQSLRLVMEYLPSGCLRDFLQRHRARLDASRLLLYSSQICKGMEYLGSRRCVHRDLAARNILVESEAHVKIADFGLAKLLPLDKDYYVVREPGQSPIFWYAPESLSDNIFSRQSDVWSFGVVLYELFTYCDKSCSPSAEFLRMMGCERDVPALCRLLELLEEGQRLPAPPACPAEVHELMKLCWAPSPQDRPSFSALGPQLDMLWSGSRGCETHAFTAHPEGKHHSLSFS
Sequence of SIRT-5 (Q9NXA8 37-310): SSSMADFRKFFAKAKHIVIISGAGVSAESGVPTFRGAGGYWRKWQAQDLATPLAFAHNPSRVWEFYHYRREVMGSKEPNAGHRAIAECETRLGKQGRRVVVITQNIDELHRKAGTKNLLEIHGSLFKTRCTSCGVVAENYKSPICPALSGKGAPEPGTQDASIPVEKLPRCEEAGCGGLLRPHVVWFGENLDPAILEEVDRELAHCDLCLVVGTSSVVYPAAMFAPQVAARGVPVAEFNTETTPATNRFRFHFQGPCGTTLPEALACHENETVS
T19 sequence (P07947 whole entry, the tested form may be a part): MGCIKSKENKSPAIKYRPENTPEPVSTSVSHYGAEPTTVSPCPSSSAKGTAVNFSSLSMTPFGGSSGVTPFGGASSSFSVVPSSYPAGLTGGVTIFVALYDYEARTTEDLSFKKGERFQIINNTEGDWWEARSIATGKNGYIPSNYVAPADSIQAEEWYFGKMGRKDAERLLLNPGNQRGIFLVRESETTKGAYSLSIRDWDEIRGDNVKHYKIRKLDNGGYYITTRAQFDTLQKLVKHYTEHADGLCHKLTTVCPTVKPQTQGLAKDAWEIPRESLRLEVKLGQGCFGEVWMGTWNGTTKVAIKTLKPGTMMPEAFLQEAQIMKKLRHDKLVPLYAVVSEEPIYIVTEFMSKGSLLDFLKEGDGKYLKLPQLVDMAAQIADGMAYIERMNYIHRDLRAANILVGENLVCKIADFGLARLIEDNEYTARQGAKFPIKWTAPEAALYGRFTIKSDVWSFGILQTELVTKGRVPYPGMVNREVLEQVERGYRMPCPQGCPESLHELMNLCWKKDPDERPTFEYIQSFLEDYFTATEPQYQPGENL
T18 sequence (Q14680 whole entry, the tested form may be a part): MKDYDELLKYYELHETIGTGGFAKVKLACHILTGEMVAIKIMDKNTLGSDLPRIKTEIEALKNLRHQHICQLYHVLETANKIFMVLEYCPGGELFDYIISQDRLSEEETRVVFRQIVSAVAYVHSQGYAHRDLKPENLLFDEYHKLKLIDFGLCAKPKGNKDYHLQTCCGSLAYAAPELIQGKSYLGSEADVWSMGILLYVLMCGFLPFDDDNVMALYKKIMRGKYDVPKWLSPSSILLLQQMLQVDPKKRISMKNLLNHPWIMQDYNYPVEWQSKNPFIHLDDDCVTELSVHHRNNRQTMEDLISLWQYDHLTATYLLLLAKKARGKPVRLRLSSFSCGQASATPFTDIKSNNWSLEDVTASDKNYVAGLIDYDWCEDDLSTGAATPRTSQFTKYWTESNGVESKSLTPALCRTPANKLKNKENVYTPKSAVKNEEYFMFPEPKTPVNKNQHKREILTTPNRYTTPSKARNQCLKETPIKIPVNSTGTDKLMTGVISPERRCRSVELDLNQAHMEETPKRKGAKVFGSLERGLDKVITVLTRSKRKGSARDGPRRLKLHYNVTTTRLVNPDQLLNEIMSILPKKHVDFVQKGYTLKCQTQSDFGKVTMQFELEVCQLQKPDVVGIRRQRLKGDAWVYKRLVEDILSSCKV
T15 sequence (P16234 593-954 T674I limits assumed): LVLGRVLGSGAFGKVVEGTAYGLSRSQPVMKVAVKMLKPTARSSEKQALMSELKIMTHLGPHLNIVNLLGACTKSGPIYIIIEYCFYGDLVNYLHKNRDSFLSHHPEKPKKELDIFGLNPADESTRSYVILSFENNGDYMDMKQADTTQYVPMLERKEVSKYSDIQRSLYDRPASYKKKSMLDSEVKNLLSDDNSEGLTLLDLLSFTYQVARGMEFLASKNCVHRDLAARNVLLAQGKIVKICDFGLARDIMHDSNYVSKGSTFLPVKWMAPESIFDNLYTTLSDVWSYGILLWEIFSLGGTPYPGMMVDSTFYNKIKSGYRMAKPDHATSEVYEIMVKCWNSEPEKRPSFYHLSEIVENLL
T5 sequence (Q9UBF8 whole entry, the tested form may be a part): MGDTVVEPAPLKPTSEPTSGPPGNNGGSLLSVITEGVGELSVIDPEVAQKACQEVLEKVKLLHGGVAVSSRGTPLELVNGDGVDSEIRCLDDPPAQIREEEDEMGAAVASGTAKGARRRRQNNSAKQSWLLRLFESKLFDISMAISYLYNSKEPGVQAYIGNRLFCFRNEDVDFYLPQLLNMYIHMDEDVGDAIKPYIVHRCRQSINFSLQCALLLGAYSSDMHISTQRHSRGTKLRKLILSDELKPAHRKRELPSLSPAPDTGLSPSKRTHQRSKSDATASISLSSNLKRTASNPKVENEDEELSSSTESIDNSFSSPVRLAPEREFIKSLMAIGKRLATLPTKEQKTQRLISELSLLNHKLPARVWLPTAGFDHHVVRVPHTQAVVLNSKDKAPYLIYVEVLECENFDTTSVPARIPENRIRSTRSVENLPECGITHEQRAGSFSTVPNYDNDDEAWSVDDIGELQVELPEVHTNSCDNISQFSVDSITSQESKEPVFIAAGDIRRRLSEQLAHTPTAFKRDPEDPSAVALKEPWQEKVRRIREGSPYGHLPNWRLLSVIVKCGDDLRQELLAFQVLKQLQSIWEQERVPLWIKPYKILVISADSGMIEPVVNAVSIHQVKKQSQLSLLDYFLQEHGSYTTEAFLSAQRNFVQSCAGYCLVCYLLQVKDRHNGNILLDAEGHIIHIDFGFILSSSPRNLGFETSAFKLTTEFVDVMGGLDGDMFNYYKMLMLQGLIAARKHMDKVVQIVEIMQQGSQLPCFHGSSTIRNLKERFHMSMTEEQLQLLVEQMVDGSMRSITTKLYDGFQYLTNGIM
T9 sequence (Q9HBH9 whole entry, the tested form may be a part): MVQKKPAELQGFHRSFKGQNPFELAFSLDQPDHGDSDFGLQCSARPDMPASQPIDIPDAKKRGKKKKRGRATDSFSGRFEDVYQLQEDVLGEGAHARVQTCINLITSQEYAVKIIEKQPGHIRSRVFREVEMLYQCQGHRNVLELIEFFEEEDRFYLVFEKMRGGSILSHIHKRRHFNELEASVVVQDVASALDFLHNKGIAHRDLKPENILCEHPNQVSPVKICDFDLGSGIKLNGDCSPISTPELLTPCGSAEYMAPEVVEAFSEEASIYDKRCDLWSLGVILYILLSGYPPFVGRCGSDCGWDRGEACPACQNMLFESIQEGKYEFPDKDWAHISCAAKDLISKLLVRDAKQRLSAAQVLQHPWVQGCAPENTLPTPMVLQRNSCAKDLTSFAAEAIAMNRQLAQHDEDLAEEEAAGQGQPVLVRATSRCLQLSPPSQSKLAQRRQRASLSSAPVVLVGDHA
T4 sequence (P16234 593-954 limits assumed): as the sequence (P16234 593-954 T674I limits assumed) above, with I82T counted along it

## COc1cc(-c2cc(=O)c3c(O)c(C/C=C(\C)CCC=C(C)C)c(O)cc3o2)ccc1O [FBL-03A]
[1]
  IC50: 123 µM

## COc1cc(-c2cc(=O)c3c(O)cc(O)c(CC=C(C)C)c3o2)ccc1O [FBL-03G, Caflanone]
[2]
  IC50: 0.0382 µM
[3]
  IC50: 0.95 µM
[4]
  IC50: 0.0647 µM
[5]
  inhibition of tumor compared to the control: significant inhibition of tumor
[6]; Table 3, 72 hours, WST-1, read-out: IC50 MV4-11 (Leukemia)
  IC50: 0.0386 µM
[7]
  IC50: 1.85 µM
[8]
  IC50: 0.00558 µM
[9]
  IC50: 0.698 µM
[10]
  IC50: 0.136 µM
[11]
  IC50: 0.19 µM
[12]
  IC50: 1.1 µM
[13]
  IC50: 0.125 µM
[14]
  IC50: 0.549 µM
[15]
  IC50: 0.0125 µM
[16]
  IC50: 0.644 µM
[17]
  IC50: 0.081 µM
[18]
  IC50: 0.32 µM
[19]
  IC50: 1.7 µM
[20]
  IC50: 1.67 µM
[21]
  IC50: 0.164 µM
[22]
  IC50: 1.4 µM
[23]
  IC50: 0.0889 µM
[24]
  IC50: 0.294 µM

## COc1ccc(-c2cc(=O)c3c(O)cc(O)cc3o2)cc1O [FBLGS-71]
[25]
  IC50: > 100 µM
[6]; Table 4, read-out: IC50 Acute Myeloid Leukemia cell lines MV4-11
  IC50: 3.26 µM
[26]
  IC50: > 100 µM
[27]
  IC50: 3.68 µM

## COc1cc(-c2cc(=O)c3c(O)c(CC=C(C)C)c(O)cc3o2)ccc1O [cannflavin B]
[28]
  cytotoxicity against cancer cells: not cytotoxic

## COc1cc(-c2cc(=O)c3c(O)c(CC=C(C)C)c(O)cc3o2)ccc1O [FBL-03B]
[5]
  inhibition of tumor compared to the control: significant inhibition of tumor

## COc1ccc(-c2cc(=O)c3c(O)cc(O)cc3o2)cc1 [FBLGS-73]
[29]
  IC50: 0.049 µM
[25]
  IC50: > 100 µM
[26]
  IC50: > 100 µM
